{"source": "patent US7169567B1", "about": "“Screening assay utilizing the PTH receptor” (The General Hospital Corporation, priority 1998, dated 2007)", "key": {"[1]": {"biological_target": "T1, truncated rat PTH-1 receptor (rΔNt) (Rattus norvegicus, UniProt P25961, E586G)", "T1 construct": "contains an open reading frame encoding a protein of about 435 amino acid residues; expressed in transfected cells; host or cells: COS-7, transient (DEAE-dextran), pCDNA-1 based plasmid", "T1 sequence (P25961 with tags, fused parts or gaps E586G)": "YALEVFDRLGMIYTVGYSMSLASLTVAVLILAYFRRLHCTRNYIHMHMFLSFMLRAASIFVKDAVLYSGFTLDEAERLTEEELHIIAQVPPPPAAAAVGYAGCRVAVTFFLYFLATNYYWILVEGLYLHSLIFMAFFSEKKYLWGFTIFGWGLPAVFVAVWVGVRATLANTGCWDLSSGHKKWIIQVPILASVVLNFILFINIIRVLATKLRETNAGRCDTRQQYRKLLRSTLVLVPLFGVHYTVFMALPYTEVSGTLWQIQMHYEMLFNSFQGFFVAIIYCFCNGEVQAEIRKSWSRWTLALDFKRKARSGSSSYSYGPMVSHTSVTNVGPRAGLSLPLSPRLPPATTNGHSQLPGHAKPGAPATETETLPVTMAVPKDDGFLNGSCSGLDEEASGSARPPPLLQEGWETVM", "assay": "cAMP inhibition assay in COS-7 cells expressing rΔNt", "type": "cell-based", "method": "(§1) FIG. 7. Antagonist Properties of PTHrP(7–34) with PTH(1–14). COS-7 cells transfected with rWT-HA (A) or rΔNt (B) were treated with the antagonist [Leu11,D-Trp12]hPTHrP(7–34)NH2 (or buffer alone), for 5 min at 22EC, followed by 10 ml of either rPTH(1–34) or rPTH(1–14) agonist peptide. Incubations were continued for 30 min at 21° C. and the resulting cAMP levels were measured by RIA, as described in Experimental Procedures. The final concentration of antagonist peptide present during the incubation was 10 mM. Shown are data from a single experiment performed in triplicate. A repeat of the same experiment yielded equivalent results.\nFor cAMP inhibition assays, transfected COS-7 cells were rinsed once with 500 ml of binding buffer, and 200 ml of IBMX buffer and 100 ml of binding buffer or binding buffer containing the antagonist [Leu11,D-Trp12]hPTHrP(7–34) NH2 (10 mM) were added. After a 5 minute incubation at room temperature, 10 ml of binding buffer containing PTH(1–14) or PTH(1–34) (agonist peptide) was added, and the incubation was continued for an additional 30 minutes. The cells were then lysed and intracellular cAMP levels were measured as described above.\nIn order to determine whether [Leu11,D-Trp12]hPTHrP(7–34)NH2, a potent competitive antagonist of PTH(1–34) action (Nutt, R. F., et al., Endocrinology 127:491–493 (1990)), could block the ability of PTH(1–14) to stimulate cAMP formation in COS-7 cells expressing either rWT-HA or rΔNt (FIG. 6). With rWT-HA the inhibitor peptide reduced the efficacy of both PTH(1–14) and PTH(1–34) by as much as 70% as compared to the responses elicited by these agonists in the absence of inhibitor (FIG. 6A)."}, "[2]": {"biological_target": "T2, intact rat PTH-1 receptor (rWT-HA) (Rattus norvegicus, UniProt P25961)", "T2 construct": "expressed in transfected cells; host or cells: COS-7, transient (DEAE-dextran), pCDNA-1 based plasmid", "T2 sequence (P25961 23-591 E93Y/N94P/K95Y/T99D/G100Y/S101A limits assumed)": "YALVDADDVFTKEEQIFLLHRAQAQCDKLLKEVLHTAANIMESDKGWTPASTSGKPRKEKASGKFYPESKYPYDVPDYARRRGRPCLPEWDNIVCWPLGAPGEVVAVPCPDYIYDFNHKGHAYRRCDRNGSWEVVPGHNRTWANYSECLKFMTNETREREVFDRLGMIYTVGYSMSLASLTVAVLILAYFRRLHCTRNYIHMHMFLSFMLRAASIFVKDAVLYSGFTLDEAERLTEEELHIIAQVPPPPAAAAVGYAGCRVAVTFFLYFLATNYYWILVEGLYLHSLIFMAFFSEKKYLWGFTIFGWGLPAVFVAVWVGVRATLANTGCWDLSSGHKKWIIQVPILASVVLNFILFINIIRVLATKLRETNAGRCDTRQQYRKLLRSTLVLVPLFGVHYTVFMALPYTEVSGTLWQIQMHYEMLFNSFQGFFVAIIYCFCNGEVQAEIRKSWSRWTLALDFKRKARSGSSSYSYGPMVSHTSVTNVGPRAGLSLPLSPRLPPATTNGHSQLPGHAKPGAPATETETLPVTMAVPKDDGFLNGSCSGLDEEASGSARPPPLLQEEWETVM", "assay": "cAMP inhibition assay in COS-7 cells expressing rWT-HA", "type": "cell-based", "details": "antagonist 10 mM", "method": "as §1\nFor cAMP inhibition assays, transfected COS-7 cells were rinsed once with 500 ml of binding buffer, and 200 ml of IBMX buffer and 100 ml of binding buffer or binding buffer containing the antagonist [Leu11,D-Trp12]hPTHrP(7–34) NH2 (10 mM) were added. After a 5 minute incubation at room temperature, 10 ml of binding buffer containing PTH(1–14) or PTH(1–34) (agonist peptide) was added, and the incubation was continued for an additional 30 minutes. The cells were then lysed and intracellular cAMP levels were measured as described above. […]"}, "[3]": {"details": "cells expressing rΔNt, antagonist 10 mM"}}, "data": [{"substance": "[Leu^11,D-Trp^12]hPTHrP(7–34)NH2 [[Leu11,D-Trp12]hPTHrP(7–34)NH2]", "values": [{"measurement": "effect on the ability of PTH(1–14) to stimulate cAMP production", "setting": "[1]; [3]", "result": "little or no effect"}, {"measurement": "effect on the ability of PTH(1–34) to stimulate cAMP production", "setting": "[1]; [3]", "result": "little or no effect"}, {"measurement": "function as an antagonist with rΔNt", "setting": "[1]; rΔNt", "result": "inability"}, {"measurement": "reduction of efficacy of PTH(1–14) (cAMP) compared to response in absence of inhibitor", "setting": "[2]; agonist PTH(1–14)", "result": "≤ 70", "unit": "%"}, {"measurement": "reduction of efficacy of PTH(1–34) (cAMP) compared to response in absence of inhibitor", "setting": "[2]; agonist PTH(1–34)", "result": "≤ 70", "unit": "%"}]}]}
